# In patent publication US4017611A, “Control of insects with 3-hydroxymethacrylic acid methyl ester dimethylthionophosphate” (priority 1970, dated 1977):
# Where two headings read alike, the source gives them in different places.
# Columns and labels:
# Sitophilus granarius = assay: Durability (disinfection) test on wheat, grain weevil; type: in vivo; conditions: 168 h, read-out: % animals dead after one week exposure
# Text: (§1) Wheat was shaken up with 5% dusting agent and then mixed again repeatedly with untreated wheat at half the poison concentration. In this way, a dilution series with concentrations of 50 - 25 - 12 - 6 - 3 - 1.5 ppm was obtained.
# (§2) Since the test is repeated once per month, the desired information is obtained concerning the residual effect. In the test, the important pests in storage protection were chosen, viz, the grain weevil (Sitophilus granarius) - lesser grain borer (Rhizopertha dominica) and the larvae of the Khapra beetle (Trogoderma granarium), which are very resistant to insecticides. 20 test insects were tested per concentration and the results are expressed in the following table.
# Rhizopertha dominica = assay: Durability (disinfection) test on wheat, lesser grain borer; type: in vivo; conditions: Rhyzopertha dominica, 168 h, read-out: % animals dead after one week exposure
# Text: as §1, §2
# Trogoderma granarium (L) = assay: Durability (disinfection) test on wheat, larvae of the Khapra beetle; type: in vivo; conditions: 168 h, read-out: % animals dead after one week exposure
# Text: as §1, §2
# Sit. Granarius = assay: Diffusion action in wheat (gas phase between wheat grains); type: in vivo; conditions: Sitophilus granarius, 168 h, 50 ppm treated wheat layer, read-out: Mortality in % after 7 days exposure time
# Text: A plexiglass box was divided by means of wire grids into ten vertical layers each 1 cm thick. Each compartment was filled with wheat grains. The first compartment contained wheat grains which had been treated with 50 ppm active agent (5% dusting agent). The remainder of the compartment contained untreated wheat. All the compartments were then supplied with grain weevils. The mortality was noted after 7 days exposure time and the results are expressed in the following table. Diffusion of active substance in gas phase between the wheat grains
# [1] = Acute oral toxicity (warm blooded toxicity) in rats; conditions: rat, in vivo, po
smiles,measurement,setting,value
"COP(=O)(OC)OC=C(Cl)Cl [DDVP, dimethyldichlorvinylphosphate, reference compound]",mortality at 1.5 ppm,Sitophilus granarius; wheat fresh,100%
same,mortality at 1.5 ppm,Sitophilus granarius; wheat stored 1 month,0%
same,mortality at 1.5 ppm,Sitophilus granarius; wheat stored 2 months,0%
same,mortality at 1.5 ppm,Sitophilus granarius; wheat stored 3 months,0%
same,mortality at 3 ppm,Sitophilus granarius; wheat fresh,100%
same,mortality at 3 ppm,Sitophilus granarius; wheat stored 1 month,5%
same,mortality at 3 ppm,Sitophilus granarius; wheat stored 2 months,0%
same,mortality at 3 ppm,Sitophilus granarius; wheat stored 3 months,0%
same,mortality at 6 ppm,Sitophilus granarius; wheat fresh,100%
same,mortality at 6 ppm,Sitophilus granarius; wheat stored 1 month,25%
same,mortality at 6 ppm,Sitophilus granarius; wheat stored 2 months,0%
same,mortality at 6 ppm,Sitophilus granarius; wheat stored 3 months,0%
same,mortality at 12 ppm,Sitophilus granarius; wheat fresh,100%
same,mortality at 12 ppm,Sitophilus granarius; wheat stored 1 month,100%
same,mortality at 12 ppm,Sitophilus granarius; wheat stored 2 months,55%
same,mortality at 12 ppm,Sitophilus granarius; wheat stored 3 months,0%
same,mortality at 25 ppm,Sitophilus granarius; wheat fresh,100%
same,mortality at 25 ppm,Sitophilus granarius; wheat stored 1 month,100%
same,mortality at 25 ppm,Sitophilus granarius; wheat stored 2 months,100%
same,mortality at 25 ppm,Sitophilus granarius; wheat stored 3 months,50%
same,mortality at 50 ppm,Sitophilus granarius; wheat fresh,100%
same,mortality at 50 ppm,Sitophilus granarius; wheat stored 1 month,100%
same,mortality at 50 ppm,Sitophilus granarius; wheat stored 2 months,100%
same,mortality at 50 ppm,Sitophilus granarius; wheat stored 3 months,99%
same,mortality at 1.5 ppm,Rhizopertha dominica; wheat fresh,95%
same,mortality at 1.5 ppm,Rhizopertha dominica; wheat stored 1 month,0%
same,mortality at 1.5 ppm,Rhizopertha dominica; wheat stored 2 months,5%
same,mortality at 1.5 ppm,Rhizopertha dominica; wheat stored 3 months,0%
same,mortality at 3 ppm,Rhizopertha dominica; wheat fresh,100%
same,mortality at 3 ppm,Rhizopertha dominica; wheat stored 1 month,5%
same,mortality at 3 ppm,Rhizopertha dominica; wheat stored 2 months,0%
same,mortality at 3 ppm,Rhizopertha dominica; wheat stored 3 months,0%
same,mortality at 6 ppm,Rhizopertha dominica; wheat fresh,100%
same,mortality at 6 ppm,Rhizopertha dominica; wheat stored 1 month,10%
same,mortality at 6 ppm,Rhizopertha dominica; wheat stored 2 months,5%
same,mortality at 6 ppm,Rhizopertha dominica; wheat stored 3 months,0%
same,mortality at 12 ppm,Rhizopertha dominica; wheat fresh,100%
same,mortality at 12 ppm,Rhizopertha dominica; wheat stored 1 month,15%
same,mortality at 12 ppm,Rhizopertha dominica; wheat stored 2 months,20%
same,mortality at 12 ppm,Rhizopertha dominica; wheat stored 3 months,0%
same,mortality at 25 ppm,Rhizopertha dominica; wheat fresh,100%
same,mortality at 25 ppm,Rhizopertha dominica; wheat stored 1 month,65%
same,mortality at 25 ppm,Rhizopertha dominica; wheat stored 2 months,40%
same,mortality at 25 ppm,Rhizopertha dominica; wheat stored 3 months,15%
same,mortality at 50 ppm,Rhizopertha dominica; wheat fresh,100%
same,mortality at 50 ppm,Rhizopertha dominica; wheat stored 1 month,100%
same,mortality at 50 ppm,Rhizopertha dominica; wheat stored 2 months,95%
same,mortality at 50 ppm,Rhizopertha dominica; wheat stored 3 months,80%
same,mortality at 1.5 ppm,Trogoderma granarium (L); wheat fresh,85%
same,mortality at 1.5 ppm,Trogoderma granarium (L); wheat stored 1 month,0%
same,mortality at 1.5 ppm,Trogoderma granarium (L); wheat stored 2 months,0%
same,mortality at 1.5 ppm,Trogoderma granarium (L); wheat stored 3 months,0%
same,mortality at 3 ppm,Trogoderma granarium (L); wheat fresh,100%
same,mortality at 3 ppm,Trogoderma granarium (L); wheat stored 1 month,0%
same,mortality at 3 ppm,Trogoderma granarium (L); wheat stored 2 months,0%
same,mortality at 3 ppm,Trogoderma granarium (L); wheat stored 3 months,0%
same,mortality at 6 ppm,Trogoderma granarium (L); wheat fresh,100%
same,mortality at 6 ppm,Trogoderma granarium (L); wheat stored 1 month,0%
same,mortality at 6 ppm,Trogoderma granarium (L); wheat stored 2 months,0%
same,mortality at 6 ppm,Trogoderma granarium (L); wheat stored 3 months,0%
same,mortality at 12 ppm,Trogoderma granarium (L); wheat fresh,100%
same,mortality at 12 ppm,Trogoderma granarium (L); wheat stored 1 month,5%
same,mortality at 12 ppm,Trogoderma granarium (L); wheat stored 2 months,0%
same,mortality at 12 ppm,Trogoderma granarium (L); wheat stored 3 months,0%
same,mortality at 25 ppm,Trogoderma granarium (L); wheat fresh,100%
same,mortality at 25 ppm,Trogoderma granarium (L); wheat stored 1 month,75%
same,mortality at 25 ppm,Trogoderma granarium (L); wheat stored 2 months,10%
same,mortality at 25 ppm,Trogoderma granarium (L); wheat stored 3 months,0%
same,mortality at 50 ppm,Trogoderma granarium (L); wheat fresh,100%
same,mortality at 50 ppm,Trogoderma granarium (L); wheat stored 1 month,100%
same,mortality at 50 ppm,Trogoderma granarium (L); wheat stored 2 months,45%
same,mortality at 50 ppm,Trogoderma granarium (L); wheat stored 3 months,0%
same,mortality at 50 ppm,Sit. Granarius; distance 1 cm,100%
same,mortality at 50 ppm,Sit. Granarius; distance 2 cm,100%
same,mortality at 50 ppm,Sit. Granarius; distance 3 cm,80%
same,mortality at 50 ppm,Sit. Granarius; distance 4 cm,0%
same,mortality at 50 ppm,Sit. Granarius; distance 5 cm,0%
same,mortality at 50 ppm,Sit. Granarius; distance 6 cm,0%
same,LD50,[1],50 mg/kg
